Each molecule was assayed on varicella-zoster virus (VZV, TK+ Oka strain). Conditions: VZV in HEL cells; strain not specified.
Format: cell-based

Row | Structure (SMILES) | Selectivity index (SI), ratio CC50 for HEL cells / EC50
1 | CC(=O)OC[C@H]1O[C@@H](n2cc3c(C#Cc4ccc(C)cc4)c(-c4ccc(C)cc4)oc3nc2=O)C[C@@H]1OC(C)=O [Compound 6h, 3-(3′,5′-di-O-acetyl-2′-deoxy-β-D-ribofuranosyl)-6-(4-methylphenyl)-5-((4-methylphenyl)ethynyl)-2,3-dihydrofuro[2,3-d]pyrimidin-2-one] | ≤ 1
2 | CCCCCc1ccc(-c2oc3nc(=O)n([C@H]4C[C@H](OC(C)=O)[C@@H](COC(C)=O)O4)cc3c2C#CCO)cc1 [Compound 7a, 3-(3′,5′-di-O-acetyl-2′-deoxy-β-D-ribofuranosyl)-5-(3-hydroxyprop-1-yn-1-yl)-6-(4-pentylphenyl)-2,3-dihydrofuro[2,3-d]pyrimidin-2-one] | ≤ 1
3 | CC(=O)OC[C@H]1O[C@@H](n2cc3c(C#CC4(O)c5ccccc5-c5ccccc54)c(-c4ccc(C)cc4)oc3nc2=O)C[C@@H]1OC(C)=O [Compound 6c, 3-(3′,5′-di-O-acetyl-2′-deoxy-β-D-ribofuranosyl)-5-((9-hydroxy-9H-fluoren-9-yl)ethynyl)-6-(4-methylphenyl)-2,3-dihydrofuro[2,3-d]pyrimidin-2-one] | ≤ 1
4 | CCCCCc1ccc(-c2oc3nc(=O)n([C@H]4C[C@H](OC(C)=O)[C@@H](COC(C)=O)O4)cc3c2C#CCCO)cc1 [Compound 7b, 3-(3′,5′-di-O-acetyl-2′-deoxy-β-D-ribofuranosyl)-5-(4-hydroxybut-1-yn-1-yl)-6-(4-pentylphenyl)-2,3-dihydrofuro[2,3-d]pyrimidin-2-one] | ≤ 1

— article PMC7521880 (European Journal of Medicinal Chemistry, 2020)
